The test system of one data set is M38K^Opto-mFGFR1 cells. Kind of data set: EMT-like morphology changes (aspect ratio) in M38K Opto-mFGFR1 cells in response to luminol SCL. Type of data set: cell-based. How it is done: After additional 24 h, cells were photographed on the Nikon Ti300 microscope.
Data set [1] deals with light-activated gene transcription plasmid pDAWN. Kind of data set: Induction of mCherry expression by SCL and pDAWN in E. coli. Type of data set: cell-based.
Method: For starting cultures, E. coli BL21 (DE) cells transformed with pDAWN were grown overnight (225 rpm, 37° C.) in LB medium (pH 7.0; Sigma) supplemented with 50 μg/ml kanamycin (Sigma). Cells were then diluted 100-fold in fresh LB medium (pH 8.0) and growth was allowed to reach OD600˜0.4 (7.3×10^7 CFU/ml) under non-inducing conditions (i.e. in the dark). For US experiments, 250 ml of these cultures were centrifuged (4700 rpm, 5 min) and resuspended in 200 ml M9 minimal medium (1×M9 salts, 2 mM MgSO4, 0.1 mM CaCl2, 0.4% glucose, buffered with 0.05 M Tris, pH 9.0). Each culture was treated with US for 3 h. After stimulation, aliquots (50 ml) were centrifuged, resuspended (in M9 minimal media) and incubated in 96-well plates overnight under non-inducing conditions (dark) to allow mCherry maturation.
Another data set concerns E. coli. Conditions: treatment with US and luminol for 3 h (20 mM luminol, pH 9), M9 minimal media.

`COc1cc(OC)cc(-c2cc3cnc(N)nc3nc2NC(=O)NC(C)(C)C)c1` [PD166866]: the “effect of luminol SCL on cell morphology after pre-treatment with inhibitor” value in the data set with M38K^Opto-mFGFR1 cells (10 μM for 1 h before US stimulation (585 kHz, 64% amplitude, 3 h)) is recorded as “abolished”.
Consider `COc1ccc(-c2cn3c(=O)c(C)nc-3c[nH]2)cc1.Cl` [MCLA, 6-(4-Methoxyphenyl)-2-methyl-3,7-dihydroimidazo[1,2-a]pyrazin-3-one Hydrochloride], for which the “induction of mCherry expression” value in data set [1] (MCLA-catalyzed SCL, pDAWN-V28I, 2 h US stimulation, 2 μM MCLA, pH 7) is recorded as “two”.
In the case of `Nc1cccc2c(=O)[nH][nH]c(=O)c12` [luminol, 5-Amino-2,3-dihydro-1,4-phthalazinedione], in the data set on E. coli, the “reduction of E. coli viability indicators (OD600 and CFUs)” value is reported as around 50%. In data set [1] ({}), the “induction of mCherry production (increase compared to control experiments)” value is around 5 fold. The “morphological changes in M38K^Opto-mFGFR1 cells” value in the data set with M38K^Opto-mFGFR1 cells (luminol SCL, two chambers configuration, 20 mM luminol, US 585 kHz, 64% amplitude, 3 h) is recorded as “induced epithelial-mesenchymal transition (EMT)-like morphological changes”.

Source of the values: patent US20190062761A1, “ULTRASOUND METHOD” (INSTITUTE OF SCIENCE AND TECHNOLOGY AUSTRIA (IST AUSTRIA), priority 2016, published 2019).
